ChEMBL document CHEMBL1142680, “Improving specificity vs bacterial thymidylate synthases through N-dansyl modulation of didansyltyrosine” (J Med Chem, 2005)
pKi: −log10 of the molar value.

Assays:
Thymidylate synthase [1] = molecular target: Thymidylate synthase (Escherichia coli, UniProt C3SWJ7); assay: Inhibitory constant against thymidylate synthase from Escherichia coli
Thymidylate synthase [2] = molecular target: T1, Thymidylate synthase (Lactobacillus casei, UniProt P00469); assay: Inhibitory constant against thymidylate synthase from Lactobacillus casei; parameters: species or system Lacticaseibacillus casei
T1 sequence (P00469 whole entry): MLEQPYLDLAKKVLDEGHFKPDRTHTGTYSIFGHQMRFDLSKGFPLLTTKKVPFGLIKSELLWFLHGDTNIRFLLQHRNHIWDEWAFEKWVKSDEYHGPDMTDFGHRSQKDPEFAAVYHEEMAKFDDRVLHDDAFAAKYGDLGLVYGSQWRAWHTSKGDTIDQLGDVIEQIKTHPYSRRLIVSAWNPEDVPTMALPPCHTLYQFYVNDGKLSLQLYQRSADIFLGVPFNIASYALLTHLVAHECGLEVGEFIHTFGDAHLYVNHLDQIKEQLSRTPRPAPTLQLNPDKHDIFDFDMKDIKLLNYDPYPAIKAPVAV

Chain of Thymidylate synthase (Escherichia coli, UniProt C3SWJ7) (C3SWJ7 whole entry): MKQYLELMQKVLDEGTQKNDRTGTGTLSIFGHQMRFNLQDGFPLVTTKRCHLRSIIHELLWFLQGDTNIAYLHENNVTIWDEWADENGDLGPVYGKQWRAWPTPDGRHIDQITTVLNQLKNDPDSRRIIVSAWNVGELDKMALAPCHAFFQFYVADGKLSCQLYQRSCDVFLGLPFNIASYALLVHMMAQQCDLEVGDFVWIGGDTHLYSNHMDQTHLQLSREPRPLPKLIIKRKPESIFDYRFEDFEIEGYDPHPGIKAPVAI

Row | Structure (SMILES) | pKi (Thymidylate synthase [1]) | pKi (Thymidylate synthase [2])
1 | CN(C)c1cccc2c(S(=O)(=O)Oc3ccc(C[C@H](NS(=O)(=O)c4cc5nnoc5c5ccccc45)C(=O)O)cc3)cccc12 | 4.82 | 5.80
2 | CN(C)c1cccc2c(S(=O)(=O)Oc3ccc(C[C@H](NS(=O)(=O)c4cccc5c(NC(=O)OCc6ccccc6)cccc45)C(=O)O)cc3)cccc12 | 5.03 | 7.00
3 | CN(C)c1cccc2c(S(=O)(=O)Oc3ccc(C[C@H](NS(=O)(=O)c4cccc5cc([N+](=O)[O-])ccc45)C(=O)O)cc3)cccc12 | 6.52 | 6.52

The remaining lines, values ahead:

Row | pKi (Thymidylate synthase [1]) | pKi (Thymidylate synthase [2]) | Structure (SMILES)
4 | 5.74 | 5.85 | CN(C)c1cccc2c(S(=O)(=O)N[C@@H](Cc3ccc(OS(=O)(=O)c4cccc5c(N(C)C)cccc45)cc3)C(=O)O)cccc12
5 | 6.52 | 6.30 | CN(C)c1cccc2c(S(=O)(=O)Oc3ccc(C[C@H](NS(=O)(=O)c4cccc5cc(N)ccc45)C(=O)O)cc3)cccc12
6 | 5.82 | 5.77 | CN(C)c1cccc2c(S(=O)(=O)Oc3ccc(C[C@H](NS(=O)(=O)c4ccc(NC(=O)OCc5ccccc5)c5ccccc45)C(=O)O)cc3)cccc12
